Measurements as given in patent publication US11352350B2, “IRAK degraders and uses thereof” (Kymera Therapeutics, Inc., priority 2018, dated 2022).
Where two headings read alike, the source gives them in different places.

Molecular target: IRAK4 (Homo sapiens (Human), UniProt Q9NWZ3)
Assay: IRAK4 MSD degradation in OCI-LY10
Type: cell-based
Procedure: Degradation of IRAK4 in OCI-LY10 was quantitatively measured using Meso Scale Discovery technology. […] Compounds were then added to the assay plates with a final top concentration of 1 to 10 μM in a 1:3 dilution series with total of 8 doses. The assay plates were then incubated for 4 to 24 hours at 37° C. under 5% CO2. […] To prepare MSD assay plates (Meso Scale Discovery Catalog number L15XA-3), the plates were coated with […] capture antibody (mouse Anti-IRAK4 antibody [2H9], ab119942) in PBS, at 40 μL/well. […] Cell lysates were then added to MSD assay plates and the plates were incubated at room temperature for 1 hour. The plates were then washed 3 times with 150 μL/well TBST buffer and 25 μL/well primary detection antibody (rabbit Anti-IRAK4 antibody [Y279], from Abcam. Catalog number ab32511, […]). The assay plates were then incubated at room temperature for 1 hour, washed 3 times with 150 μL/well TBST buffer and 25 µL/well secondary detection antibody, SULFO-TAG anti-rabbit antibody were added (anti rabbit antibody from Meso Scale Discovery, Catalog number R32AB-1, 1 μg/mL). The assay plates were then incubated at room temperature for 1 hour, washed 3 times with 150 μL/well TB ST buffer, and 150 μL/well MSD reading buffer (Meso Scale Discovery catalog number R92TC-2) was added. The plates were then analyzed by a MSD reader (Meso Scale Discovery, Model Quick Plex SQ 120). The data was then analyzed by software Prism 7.0 from GraphPad and the dose-depended IRAK4 degradation were fit using a three-parameter logistic equation to calculate DC50.

[1] = OCI-LY10, 4 hrs, MSD, read-out: IRAK4 MSD degradation in OCI-LY10 at 4 hrs: Average external-Abs DC50
[2] = OCI-LY10, 24 hrs, MSD, read-out: IRAK4 MSD degradation in OCI-LY10 at 24 hrs: Average external-Abs DC50

IRAK4, sequence (Q9NWZ3 whole entry): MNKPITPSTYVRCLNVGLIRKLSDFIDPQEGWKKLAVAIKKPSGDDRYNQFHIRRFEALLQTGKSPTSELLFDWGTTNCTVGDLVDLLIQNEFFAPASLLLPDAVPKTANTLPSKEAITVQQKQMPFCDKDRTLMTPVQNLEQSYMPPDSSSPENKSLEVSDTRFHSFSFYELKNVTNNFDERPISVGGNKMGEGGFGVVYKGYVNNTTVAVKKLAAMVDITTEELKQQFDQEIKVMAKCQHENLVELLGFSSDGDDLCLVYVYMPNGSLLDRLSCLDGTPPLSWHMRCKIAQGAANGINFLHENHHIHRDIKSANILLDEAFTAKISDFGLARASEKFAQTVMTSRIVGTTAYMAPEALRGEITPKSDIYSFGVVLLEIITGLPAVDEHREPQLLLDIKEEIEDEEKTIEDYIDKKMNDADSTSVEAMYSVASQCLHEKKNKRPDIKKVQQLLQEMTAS

SMILES	DC50 [1]	further results
Cn1c(=O)n(C2CCC(=O)NC2=O)c2ccc(CN3CCC(CCO[C@H]4C[C@H](N(C)C[C@H]5CC[C@H](n6cc(NC(=O)c7coc(-c8ccnc(NCC9CC9)c8)n7)c(C(F)F)n6)CC5)C4)CC3)cc21 (stereo partly drawn) [I-238]	0.01 to 0.1 µM	–
O=C1CCC(n2c3cccc(CCCOCCOCCNC[C@H]4CC[C@H](n5cc(NC(=O)c6coc(-c7ccnc(NCC8CC8)c7)n6)c(C(F)F)n5)CC4)c3c3cccnc32)C(=O)N1 (stereo partly drawn) [I-93]	0.01 to 0.1 µM	–
O=C1CCC(N2C(=O)c3ccc(NCC4CC5(CCN(C[C@H]6CC[C@H](n7cc(NC(=O)c8cnn9ccc(N%10C[C@H]%11C[C@@H]%10CO%11)nc89)c(C(F)F)n7)CC6)CC5)C4)cc3C2=O)C(=O)N1 (stereo partly drawn) [I-556]	–	DC50 (OCI-LY10, 4 hrs, read-out: IRAK4 MSD degradation in OCI-LY10 at 4 hrs: DC50): 0.01 to 0.1 µM; DC50 (OCI-LY10, 24 hrs, read-out: IRAK4 MSD degradation in OCI-LY10 at 24 hrs: DC50): < 0.01 µM
CN(C[C@@H]1CN(Cc2cccc3c2n(C)c(=O)n3C2CCC(=O)NC2=O)CCO1)C[C@H]1CC[C@H](n2cc(NC(=O)c3coc(-c4ccnc(NCC5CC5)c4)n3)c(C(F)F)n2)CC1 (stereo partly drawn) [I-78]	0.01 to 0.1 µM	–
CN(CCCOCCCc1ccc2c(c1)oc(=O)n2C1CCC(=O)NC1=O)C[C@H]1CC[C@H](n2cc(NC(=O)c3coc(-c4ccnc(NCC5CC5)c4)n3)c(C(F)F)n2)CC1 (stereo partly drawn) [I-87]	< 0.01 µM	–
CN(CCOCC1CCN(c2ccc3c(c2)n(C)c(=O)n3C2CCC(=O)NC2=O)CC1)C[C@H]1CC[C@H](n2cc(NC(=O)c3coc(-c4ccnc(NCC5CC5)c4)n3)c(C(F)F)n2)CC1 (stereo partly drawn) [I-56]	0.1 to 1 µM	–
Cn1c(=O)n(C2CCC(=O)NC2=O)c2ccc(CCCN3CCO[C@@H](CNC[C@H]4CC[C@H](n5cc(NC(=O)c6coc(-c7ccnc(NCC(F)(F)F)c7)n6)c(C(C)(C)O)n5)CC4)C3)cc21 (stereo partly drawn) [I-60]	0.01 to 0.1 µM	–
CC(C)N(CCCOCCCc1cccc2c1n(C)c(=O)n2C1CCC(=O)NC1=O)C[C@H]1CC[C@H](n2cc(NC(=O)c3coc(-c4ccnc(NCC5CC5)c4)n3)c(C(F)F)n2)CC1 (stereo partly drawn) [I-63]	0.01 to 0.1 µM	–
Cn1c(=O)n(C2CCC(=O)NC2=O)c2cccc(CCCO[C@@H]3CCN(C[C@H]4CC[C@H](n5cc(NC(=O)c6coc(-c7ccnc(NCC8CC8)c7)n6)c(C(F)F)n5)CC4)C3)c21 (stereo partly drawn) [I-73]	< 0.01 µM	–
CN(CCCCc1cccc2c1n(C)c(=O)n2C1CCC(=O)NC1=O)C[C@H]1CC[C@H](n2cc(NC(=O)c3coc(-c4ccnc(NCC5CC5)c4)n3)c(C(F)F)n2)CC1 (stereo partly drawn) [I-66]	< 0.01 µM	–
Cn1c(=O)n(C2CCC(=O)NC2=O)c2cccc(CCCOCCOCCOCCOCC(=O)N3CCN([C@H]4CC[C@H](Nc5ncnn6ccc(C7CCOCC7)c56)CC4)CC3)c21 (stereo partly drawn) [I-19]	> 1 µM	DC50 [2]: > 1 µM
O=C1CCC(n2c3ccc(CCCN4CC5(CCN(C(=O)[C@H]6CC[C@H](n7cc(NC(=O)c8cnn9ccc(N%10C[C@H]%11C[C@@H]%10CO%11)nc89)c(C(F)F)n7)CC6)CC5)C4)cc3c3cccnc32)C(=O)N1 (stereo partly drawn) [I-388]	0.01 to 0.1 µM	–
Cn1c(=O)n(C2CCC(=O)NC2=O)c2cccc(CN3CCC(CC4CCN(C[C@H]5CC[C@H](n6cc(NC(=O)c7coc(-c8ccnc(NCC9CC9)c8)n7)c(C(F)F)n6)CC5)CC4)CC3)c21 (stereo partly drawn) [I-74]	< 0.01 µM	–
CN(CCCOCCCc1ccc2c(c1)n(C)c(=O)n2C1CCC(=O)NC1=O)C[C@H]1CC[C@H](n2cc(NC(=O)c3coc(-c4ccnc(NCC5CC5)c4)n3)c(C(C)(C)O)n2)CC1 (stereo partly drawn) [I-83]	0.1 to 1 µM	–
Cn1c(=O)n(C2CCC(=O)NC2=O)c2cccc(CCCOC3CCN(C[C@H]4CC[C@H](n5cc(NC(=O)c6cnn7cccnc67)c(C(F)F)n5)CC4)CC3)c21 (stereo partly drawn) [I-251]	0.1 to 1 µM	–
CN(C[C@H]1CN(Cc2cccc3c2n(C)c(=O)n3C2CCC(=O)NC2=O)CCO1)C[C@H]1CC[C@H](n2cc(NC(=O)c3coc(-c4ccnc(NCC5CC5)c4)n3)c(C(F)F)n2)CC1 (stereo partly drawn) [I-77]	0.01 to 0.1 µM	–
CN(CCCOCC#Cc1cccc2c1n(C)c(=O)n2C1CCC(=O)NC1=O)C[C@H]1CC[C@H](n2cc(NC(=O)c3coc(-c4ccnc(NCC5CC5)c4)n3)c(C(F)F)n2)CC1 (stereo partly drawn) [I-88]	0.1 to 1 µM	–
CN(CC[C@@H]1CN(CCCc2ccc3c(c2)n(C)c(=O)n3C2CCC(=O)NC2=O)CCO1)C[C@H]1CC[C@H](n2cc(NC(=O)c3coc(-c4ccnc(NCC5CC5)c4)n3)c(C(F)F)n2)CC1 (stereo partly drawn) [I-97]	< 0.01 µM	–
Cn1c(=O)n(C2CCC(=O)NC2=O)c2cccc(CN3CCC(OCC4CCN(C[C@H]5CC[C@H](n6cc(NC(=O)c7coc(-c8ccnc(NCC9CC9)c8)n7)c(C(F)F)n6)CC5)CC4)CC3)c21 (stereo partly drawn) [I-248]	< 0.01 µM	–

SMILES	DC50 [1]	further results
Cn1c(=O)n(C2CCC(=O)NC2=O)c2cccc(CN3CCC(OC4CCN(C[C@H]5CC[C@H](n6cc(NC(=O)c7coc(-c8ccnc(NCC9CC9)c8)n7)c(C(F)F)n6)CC5)CC4)CC3)c21 (stereo partly drawn) [I-256]	< 0.01 µM	–
Cn1c(=O)n(C2CCC(=O)NC2=O)c2ccc(CN3CCC(CCC(=O)N4CCC(n5cc(NC(=O)c6coc(-c7ccnc(NCC8CC8)c7)n6)c(C(F)F)n5)CC4)CC3)cc21 (stereo not drawn) [I-255]	0.01 to 0.1 µM	DC50 [2]: < 0.01 µM
Cn1c(=O)n(C2CCC(=O)NC2=O)c2cccc(CCCOCCCN(C[C@H]3CC[C@H](n4cc(NC(=O)c5coc(-c6ccnc(NCC7CC7)c6)n5)c(C(F)F)n4)CC3)C3CC3)c21 (stereo partly drawn) [I-64]	0.1 to 1 µM	–
Cn1c(=O)n(C2CCC(=O)NC2=O)c2cccc(CCCO[C@H]3CCN(C[C@H]4CC[C@H](n5cc(NC(=O)c6coc(-c7ccnc(NCC8CC8)c7)n6)c(C(F)F)n5)CC4)C3)c21 (stereo partly drawn) [I-72]	0.01 to 0.1 µM	–
Cn1c(=O)n(C2CCC(=O)NC2=O)c2cccc(CCCOCCCCCN3CCC(n4cc(NC(=O)c5coc(-c6ccnc(NCC7CC7)c6)n5)c(C(F)F)n4)CC3)c21 (stereo not drawn) [I-262]	< 0.01 µM	DC50 [2]: < 0.01 µM
CN(CC[C@H]1CN(CCCc2ccc3c(c2)n(C)c(=O)n3C2CCC(=O)NC2=O)CCO1)C[C@H]1CC[C@H](n2cc(NC(=O)c3coc(-c4ccnc(NCC5CC5)c4)n3)c(C(F)F)n2)CC1 (stereo partly drawn) [I-96]	0.01 to 0.1 µM	–
CN1CCN(c2ccn3ncc(C(=O)Nc4cn([C@H]5CC[C@H](CN6CCC(OCCCc7cccc8c7n(C)c(=O)n8C7CCC(=O)NC7=O)CC6)CC5)nc4C(F)F)c3c2)CC1 (stereo partly drawn) [I-258]	0.01 to 0.1 µM	DC50 [2]: 0.01 to 0.1 µM
CN(CCCOCCCc1cccc2c1n(C)c(=O)n2C1CCC(=O)NC1=O)C[C@H]1CC[C@H](n2cc(NC(=O)c3cccc(C(F)(F)F)n3)c(C(C)(C)O)n2)CC1 (stereo partly drawn) [I-71]	0.1 to 1 µM	–
CN(CCOC(=O)NCc1ccc2c(c1)n(C)c(=O)n2C1CCC(=O)NC1=O)C[C@H]1CC[C@H](n2cc(NC(=O)c3coc(-c4ccnc(NCC5CC5)c4)n3)c(C(F)F)n2)CC1 (stereo partly drawn) [I-91]	0.1 to 1 µM	–
Cn1c(=O)n(C2CCC(=O)NC2=O)c2cccc(CN3CCC(CCN4CCC(n5cc(NC(=O)c6coc(-c7ccnc(NCC8CC8)c7)n6)c(C(F)F)n5)CC4)CC3)c21 (stereo not drawn) [I-264]	< 0.01 µM	DC50 [2]: < 0.01 µM
CN(CCCOCCCc1cccc2c1n(C)c(=O)n2C1CCC(=O)NC1=O)C[C@H]1CC[C@H](n2cc(NC(=O)c3coc(-c4ccncc4)n3)c(C(F)F)n2)CC1 (stereo partly drawn) [I-69]	0.1 to 1 µM	–
CN(CCOCCCc1cccc2c1N(C)C(=O)C2C1CCC(=O)NC1=O)CC[C@H]1CC[C@H](n2cc(NC(=O)c3coc(-c4ccnc(NCC5CC5)c4)n3)c(C(F)F)n2)CC1 (stereo partly drawn) [I-154]	0.01 to 0.1 µM	DC50 [2]: 0.01 to 0.1 µM
Cn1c(=O)n(C2CCC(=O)NC2=O)c2cccc(CN3CCC(CCCN4CCC(n5cc(NC(=O)c6coc(-c7ccnc(NCC8CC8)c7)n6)c(C(F)F)n5)CC4)CC3)c21 (stereo not drawn) [I-253]	0.01 to 0.1 µM	–
CN(CCOCCNCc1ccc2c(c1)n(C)c(=O)n2C1CCC(=O)NC1=O)C(=O)[C@H]1CC[C@H](n2cc(NC(=O)c3coc(-c4ccnc(NCC5CC5)c4)n3)c(C(F)F)n2)CC1 (stereo partly drawn) [I-55]	< 0.01 µM	–
CN(CCC1CCN(Cc2cccc3c2n(C)c(=O)n3C2CCC(=O)NC2=O)CC1)C[C@H]1CC[C@H](n2cc(NC(=O)c3coc(-c4ccnc(NCC5CC5)c4)n3)c(C(F)F)n2)CC1 (stereo partly drawn) [I-79]	0.01 to 0.1 µM	–
Cn1c(=O)n(C2CCC(=O)NC2=O)c2ccc(CCCOCCCCCN3CCC(n4cc(NC(=O)c5coc(-c6ccnc(NCC7CC7)c6)n5)c(C(F)F)n4)CC3)cc21 (stereo not drawn) [I-261]	< 0.01 µM	DC50 [2]: < 0.01 µM
CN(CC1CCN(CCC#Cc2ccc3c(c2)n(C)c(=O)n3C2CCC(=O)NC2=O)CC1)C[C@H]1CC[C@H](n2cc(NC(=O)c3coc(-c4ccnc(NCC5CC5)c4)n3)c(C(F)F)n2)CC1 (stereo partly drawn) [I-57]	< 0.01 µM	–
CNc1cc(-c2nc(C(=O)Nc3cn([C@H]4CC[C@H](CN(C)CCCOCCCc5cccc6c5n(C)c(=O)n6C5CCC(=O)NC5=O)CC4)nc3C(F)F)co2)ccn1 (stereo partly drawn) [I-68]	0.01 to 0.1 µM	–
